Data reported in patent publication US12618095B2, “Medium for Bacillus cereus group detection” (SHIMADZU DIAGNOSTICS CORPORATION, priority 2020, dated 2026).

System: B. cereus
Test: Test Example 9: concentration of amphotericin B

## C[C@@H]1[C@H](O)[C@@H](C)/C=C/C=C/C=C/C=C/C=C/C=C/C=C/[C@H](O[C@@H]2O[C@H](C)[C@@H](O)[C@H](N)[C@@H]2O)C[C@@H]2O[C@](O)(C[C@@H](O)C[C@@H](O)[C@H](O)CC[C@@H](O)C[C@@H](O)CC(=O)O[C@H]1C)C[C@H](O)[C@H]2C(=O)O [Amphotericin B]
ATCC11778, Amphotericin B 0.1 mg, 24 hours, 10^2 cfu/mL
  Number of colonies: 37
ATCC11778, Amphotericin B 0.1 mg, 24 hours, 10^3 cfu/mL
  Number of colonies: +
ATCC11778, Amphotericin B 0.1 mg, 24 hours, 10^4 cfu/mL
  Number of colonies: +
ATCC11778, Amphotericin B 0.1 mg, 24 hours, 10^5 cfu/mL
  Number of colonies: +
ATCC11778, Amphotericin B 0.1 mg, 44 hours, 10^2 cfu/mL
  Number of colonies: 37
ATCC11778, Amphotericin B 0.1 mg, 44 hours, 10^3 cfu/mL
  Number of colonies: +
ATCC11778, Amphotericin B 0.1 mg, 44 hours, 10^4 cfu/mL
  Number of colonies: +
ATCC11778, Amphotericin B 0.1 mg, 44 hours, 10^5 cfu/mL
  Number of colonies: +
ATCC11778, Amphotericin B 1.0 mg, 24 hours, 10^2 cfu/mL
  Number of colonies: 51
ATCC11778, Amphotericin B 1.0 mg, 24 hours, 10^3 cfu/mL
  Number of colonies: +
ATCC11778, Amphotericin B 1.0 mg, 24 hours, 10^4 cfu/mL
  Number of colonies: +
ATCC11778, Amphotericin B 1.0 mg, 24 hours, 10^5 cfu/mL
  Number of colonies: +
ATCC11778, Amphotericin B 1.0 mg, 44 hours, 10^2 cfu/mL
  Number of colonies: 51
ATCC11778, Amphotericin B 1.0 mg, 44 hours, 10^3 cfu/mL
  Number of colonies: +
ATCC11778, Amphotericin B 1.0 mg, 44 hours, 10^4 cfu/mL
  Number of colonies: +
ATCC11778, Amphotericin B 1.0 mg, 44 hours, 10^5 cfu/mL
  Number of colonies: +
ATCC11778, Amphotericin B 10 mg, 24 hours, 10^2 cfu/mL
  Number of colonies: 49
ATCC11778, Amphotericin B 10 mg, 24 hours, 10^3 cfu/mL
  Number of colonies: +
ATCC11778, Amphotericin B 10 mg, 24 hours, 10^4 cfu/mL
  Number of colonies: +
ATCC11778, Amphotericin B 10 mg, 24 hours, 10^5 cfu/mL
  Number of colonies: +
ATCC11778, Amphotericin B 10 mg, 44 hours, 10^2 cfu/mL
  Number of colonies: 49
ATCC11778, Amphotericin B 10 mg, 44 hours, 10^3 cfu/mL
  Number of colonies: +
ATCC11778, Amphotericin B 10 mg, 44 hours, 10^4 cfu/mL
  Number of colonies: +
ATCC11778, Amphotericin B 10 mg, 44 hours, 10^5 cfu/mL
  Number of colonies: +
ATCC19637, Amphotericin B 0.1 mg, 24 hours, 10^2 cfu/mL
  Number of colonies: 36
ATCC19637, Amphotericin B 0.1 mg, 24 hours, 10^3 cfu/mL
  Number of colonies: +
ATCC19637, Amphotericin B 0.1 mg, 24 hours, 10^4 cfu/mL
  Number of colonies: +
ATCC19637, Amphotericin B 0.1 mg, 24 hours, 10^5 cfu/mL
  Number of colonies: +
ATCC19637, Amphotericin B 0.1 mg, 44 hours, 10^2 cfu/mL
  Number of colonies: 36
ATCC19637, Amphotericin B 0.1 mg, 44 hours, 10^3 cfu/mL
  Number of colonies: +
ATCC19637, Amphotericin B 0.1 mg, 44 hours, 10^4 cfu/mL
  Number of colonies: +
ATCC19637, Amphotericin B 0.1 mg, 44 hours, 10^5 cfu/mL
  Number of colonies: +
ATCC19637, Amphotericin B 1.0 mg, 24 hours, 10^2 cfu/mL
  Number of colonies: 35
ATCC19637, Amphotericin B 1.0 mg, 24 hours, 10^3 cfu/mL
  Number of colonies: +
ATCC19637, Amphotericin B 1.0 mg, 24 hours, 10^4 cfu/mL
  Number of colonies: +
ATCC19637, Amphotericin B 1.0 mg, 24 hours, 10^5 cfu/mL
  Number of colonies: +
ATCC19637, Amphotericin B 1.0 mg, 44 hours, 10^2 cfu/mL
  Number of colonies: 35
ATCC19637, Amphotericin B 1.0 mg, 44 hours, 10^3 cfu/mL
  Number of colonies: +
ATCC19637, Amphotericin B 1.0 mg, 44 hours, 10^4 cfu/mL
  Number of colonies: +
ATCC19637, Amphotericin B 1.0 mg, 44 hours, 10^5 cfu/mL
  Number of colonies: +
ATCC19637, Amphotericin B 10 mg, 24 hours, 10^2 cfu/mL
  Number of colonies: 39
ATCC19637, Amphotericin B 10 mg, 24 hours, 10^3 cfu/mL
  Number of colonies: +
ATCC19637, Amphotericin B 10 mg, 24 hours, 10^4 cfu/mL
  Number of colonies: +
ATCC19637, Amphotericin B 10 mg, 24 hours, 10^5 cfu/mL
  Number of colonies: +
ATCC19637, Amphotericin B 10 mg, 44 hours, 10^2 cfu/mL
  Number of colonies: 39
ATCC19637, Amphotericin B 10 mg, 44 hours, 10^3 cfu/mL
  Number of colonies: +
ATCC19637, Amphotericin B 10 mg, 44 hours, 10^4 cfu/mL
  Number of colonies: +
ATCC19637, Amphotericin B 10 mg, 44 hours, 10^5 cfu/mL
  Number of colonies: +
